Assays:
[1] = tested on: choroidal neovascularization (CNV); test: Mouse model of choroidal neovascularization (CNV) induced by laser irradiation; CNV volume at 7 days; assay type: in vivo; conditions: 7 days after laser irradiation; for CNV suppression rate: based on non-treated group
Method: In the CNV model, macrophages migrate by the initiation of an inflammation by laser irradiation, and as a result thereof, VEGF is produced, neovascular vessels are generated, and increased vascular permeability is observed.
The both eyes of a male C57BL/6J mice having a body weight of about 20 g (6-week old) were irradiated with laser (irradiated by 4 to 6 spots per one eye) to experimentally induce CNV. As mentioned below, the drugs were administered by an anti-VEGF antibody alone and ranirestat alone, respectively, or by a combination of the two drugs. […] As the anti-VEGF antibody, a mouse anti-VEGF antibody purchased from R&D Systems was used. The number of examples was five per a group, and the following four groups were set.
(a) Untreated group (b) 3 mg/kg ranirestat-administered group: 3 mg/kg of ranirestat was forcibly and orally administered once a day (3 mg/kg/day) (c) Anti-VEGF antibody-administered group: ing of an anti-VEGF antibody was administered by intravitreal injection (d) Combination use group: ing of an anti-VEGF antibody was administered by intravitreal injection+ranirestat was administered (3 mg/kg was forcibly and orally administered once a day (3 mg/kg/day))
Ranirestat was administered from the days of the laser irradiation (20 to 30 minutes after the irradiation) to 7 days after the irradiation. The anti-VEGF antibody was administered by intravitreal injection immediately after the laser irradiation. After completion of the laser irradiation, the mice were bred by general breeding for 7 days, and thereafter the eye balls were excised and the volume of CNV appeared in the choroid was measured. The induction and evaluation of CNV were conducted by the following procedures.
Each mouse was anesthetized by administering 0.30 mL of tribromoethanol to the abdominal cavity of the mouse, and a mydriatics and a local anesthesia were placed a drop of the eyes. Thereafter the both eyes of the mouse were irradiated with laser (wavelength: 532 nm, output: 200 mW, irradiation time: 100 ms, spot size: 100 μm) by 4 to 6 spots per one eye using a laser photocoagulation device (Lumenis). CNV appeared by the laser irradiation, and thereafter the CNV volume increased.
At 7 days after the laser irradiation, each mouse was euthanized under tribromoethanol anesthesia, and the left and right eye balls of the mouse were excised. […] The volume of CNV was measured by importing an image in the vicinity of CNV by a confocal laser microscope (Zeiss LSM5 Pascal) and using image analysis software (NIH Image J). […]
Ranirestat was administered from the day of the laser irradiation (20 to 30 minutes after the irradiation) to seven days after the irradiation. […] The CNV volume was measured in a similar manner to Experiment 1.

[2] = injected into the vitreous body of a human; package insert of ranibizumab; cited from earlier work

Compound	CNV suppression rate ([1]; Experiment 1, male C57BL/6J mice, ranirestat 3 mg/kg/day oral, anti-VEGF antibody by intravitreal injection) [%]	effect of suppressing the CNV volume as compared to the non-treated group ([1]; Experiment 1, ranirestat 3 mg/kg/day oral, anti-VEGF antibody intravitreal)	CNV suppression rate ([1]; Experiment 2, ranirestat 10 mg/kg/day oral, anti-VEGF antibody 1 ng by intravitreal injection) [%]	effect of suppressing the CNV volume as compared to the non-treated group ([1]; Experiment 2, ranirestat 10 mg/kg/day oral, anti-VEGF antibody 1 ng intravitreal)	elimination half-life [2] [h]
O=C1C[C@@]2(C(=O)N1)C(=O)N(Cc1ccc(Br)cc1F)C(=O)c1cccn12 [ranirestat, (3R)-2′-(4-bromo-2-fluorobenzyl)spiro[pyrrolidine-3,4′(1′H)pyrrolo[1,2-a]pyrazine]-1′,2,3′,5(2′H)-tetrone]	18.3	an effect of suppressing the CNV volume was observed but there was no significant difference	39.3	a significant effect of suppressing the CNV volume was observed	–
ranibizumab: typical anti-VEGF agent, used as intravitreal injection	–	–	–	–	220
